Experimental data taken from article PMC4420714 (Peptides, 2015).
Entries after “also recorded” stand apart in the source; their conditions may differ.

Target: T1, VPAC2-R (Homo sapiens, UniProt P41587)
T1 sequence (P41587 24-438): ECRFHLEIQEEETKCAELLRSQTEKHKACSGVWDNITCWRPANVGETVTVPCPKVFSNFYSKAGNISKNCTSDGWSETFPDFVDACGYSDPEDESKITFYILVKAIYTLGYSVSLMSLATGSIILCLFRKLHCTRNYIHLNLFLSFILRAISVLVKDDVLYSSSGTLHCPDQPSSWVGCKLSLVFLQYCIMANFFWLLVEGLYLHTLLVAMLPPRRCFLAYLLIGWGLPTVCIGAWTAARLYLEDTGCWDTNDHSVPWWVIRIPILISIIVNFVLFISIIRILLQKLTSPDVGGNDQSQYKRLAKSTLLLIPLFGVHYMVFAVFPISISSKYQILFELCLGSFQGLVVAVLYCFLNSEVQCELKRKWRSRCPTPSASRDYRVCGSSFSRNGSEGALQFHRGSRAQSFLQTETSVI
Assay: Binding of 125I-PACAP27 to VPAC2-R/PANC-1 cells
Conditions: ratio of binding IC50, analog vs native parent peptide

| Substance | decrease in affinity for VPAC2-R/PANC-1 cells compared to native PACAP38 (or PACAP27, VIP) |
| --- | --- |
| [Iaa^1,D-Ser^2,Ala^22]PACAP38 [Peptide P48] | 50–400 fold |
| [Iaa^1,D-Tyr^2,Ala^22]PACAP38 [Peptide P49] | 50–400 fold |
| [Iac^1,Ala^16,17,D-Lys^38]PACAP38 [Peptide P29] | 2-to-6 fold |
| [Lys(palmitoyl)^38]PACAP38 [Peptide P12] | 16–21 fold |
| [Me-Asp^3,Aib^16,28,Lys^34,D-Lys^38]PACAP38 [Peptide P33] | 40–85 fold |
| [N-Ac-His^1,Ala^16,17,D-Lys^38]PACAP38 [Peptide P28] | 2-to-6 fold |
| [N-Ac-His^1,Pip^3]PACAP38 [Peptide P27] | 15–500 fold |
| [Pip^3,Aib^16,28,Ala^17,Lys^34,D-Lys^38]PACAP38 [Peptide P35] | 50–400 fold |
| [Pip^3]PACAP38 [Peptide P26] | 15–500 fold |
| [Pro^3]PACAP38 [Peptide P18] | 15–500 fold |
| [Sar^3]PACAP38 [Peptide P19] | 15–500 fold |
| [β-Ala^3,Ala^16,17]PACAP38 [Peptide P21] | 50–400 fold |

Target: T1, VPAC2-R
Assay: [3H]cAMP generation in VPAC2-R/PANC-1 cells
Format: cell-based
Conditions: VPAC2-R/PANC-1 cells; relative to PACAP38; up to 1 µM

| Substance | [3H]cAMP VPAC2-R/PANC-1 % max (agonist class) |
| --- | --- |
| [Iaa^1,D-Ser^2,Ala^22]PACAP38 [Peptide P48] | Ag (1 µM, 43) |
| [N-Ac-His^1,Pip^3]PACAP38 [Peptide P27] | Ag (1 µM, 18) |
| [Pip^3,Aib^16,28,Ala^17,20,Lys^34,D-Lys^38]PACAP38 [Peptide P41] | no agonist activity; also recorded: No Act |
| [Pip^3,Aib^16,28,Ala^17,21,Lys^34,D-Lys^38]PACAP38 [Peptide P40] | no agonist activity; also recorded: No Act |
| [Pip^3,Aib^16,28,Ala^17,Lys^34,D-Lys^38]PACAP38 [Peptide P35] | Ag (1 µM, 33) |
| [Pip^3,Ala^14,17,Aib^16,28,Lys^34,D-Lys^38]PACAP38 [Peptide P39] | no agonist activity; also recorded: No Act |
| [Pip^3,Ala^15,17,Aib^16,28,Lys^34,D-Lys^38]PACAP38 [Peptide P38] | no agonist activity; also recorded: No Act |
| [Pip^3]PACAP38 [Peptide P26] | no agonist activity; also recorded: No Act |
| [Pro^3]PACAP38 [Peptide P18] | Ag (1 µM, 26) |
| [Sar^3]PACAP38 [Peptide P19] | Ag (1 µM, 35) |
| [β-Ala^3,Ala^16,17]PACAP38 [Peptide P21] | no agonist activity; also recorded: No Act |
